Tests used:
Assay type in all cases: in vivo
[1] = test system: Amaranthus retroflexus; test: Glasshouse pot test, soil surface application, visual % reduction (Example 1); conditions: 14 DAT
Description: (§1) 7×7 cm^2 pots were filled with a non-sterile loam soil. Weed seeds (Amaranthus retroflexus, Echinochloa crus galli and Setaria viridis) were placed in three separate shallow wells with a maize seed (Pioneer 3394) inserted to a depth of 4 cm in between in each pot and the seeds lightly covered with soil. A 1 ml solution of technical isoxaflutole, suitably diluted to give a dose equivalent to 6.25, 12.5, 25, 50 and 100 g/ha in acetonitrile, was pipetted evenly on the soil surface of pots (replicated 10 times), according to the following regime. On day 1, a set of 5 pots were treated with 5 dose rates (6.25-100 g/ha) and set aside in the glasshouse. At the same time, on day 1 a second set of 4 pots were with 4 dose rates (treatment A. 6.25-50 g/ha) along with a third set of 3 pots treated with 3 dose rates (treatment B: 6.25-25 g/ha). On day 2 each of the second and third pots were treated again the pots receiving identical treatments A and B and second set of pots set aside in the glasshouse. On day 3 each of the third set of pots were treated again, the pots receiving identical treatment B. On day 4 each of the third set of pots were treated, the pots receiving identical treatment B and the pots set aside in the glasshouse. The pots were maintained in a glasshouse, with overhead watering (3×daily) and supplementary lighting. Visual assessment of % reduction, compared to untreated control plants was recorded 14 days after treatment. The results (average of 10 replicates) arm shown on Table 1, where the dosing regime refers to the number of daily applications followed by the dose of compound on each day.

[2] = test system: Setaria viridis; test: as above; conditions: 14 DAT
Description: as §1

[3] = test system: Echinochloa crus galli; test: as above; conditions: 14 DAT
Description: as §1

[4] = test system: Maize; test: Sequential soil surface application on plots (Example 5); conditions: 14 DAT
Description: (§2) Maize is sown and grown up in an area where weeds and weed seedlings are present. The weeds are Amaranthus retroflexus, Echinochloa crus-galli and Setaria viridis. Solutions of isoxazole in acetonitrile were applied directly to the soil surface at dose rates of 100, 50 and 25 g/ha to plots A, B and C respectively. 1 DAT dose rates of 50 and 25 g/ha were applied to plots B and C respectively, 2 and 3 DAT a dose rate of 25 g/ha was applied to plot C.
(§3) Activity of the isoxazole on maize and weed species was observed 14 DAT.

[5] = test system: Amaranthus retroflexus; test: as above; conditions: 14 DAT
Description: as §2, §3

[6] = test system: Echinochloa crus-galli; test: as above; conditions: 14 DAT
Description: as §2, §3

[7] = test system: Setaria viridis; test: as above; conditions: 14 DAT
Description: as §2, §3

[8] = test system: weeds; test: Activity on weeds after spraying on sown maize (Example 3); conditions: 105 g/ha, observed after 3 weeks
Description: Maize is sown and then grown up in area where weeds and weed seeds are present. The weeds are a selection from: Alopecurus myosuroides, Avena fatua, Digitaria sanguinalis, Echinochloa crus-galli, Eleusine indica, Lolium multiflorum, Setaria viridis, Sorghum halepense, Cyperus esculentus, Cyperus iria, Cyperus rotundus, Eleocharis acicularis, Abutilon theophrasti, Amaranthus retroflexus, Bidens pilosa, Chenopodium album, Galium aparine, Ipomgoea purpurea, Lamium purpureum, Matricaria inodora, Sesbania […], Sinapis arvensis, Solanum nigrum, Stellaria media, Veronica hederifolia, Veronica […], Viola arvensis and Xanthium strumarium. […] The amounts of isoxazole of formula (I) and DKN were measured after 4 days in a 5 cm deep soil core around the seed or seedling. The weight ratio of isoxazole: […]

[9] = test system: Maize; test: Activity on crop after spraying on sown maize (Example 3); conditions: 105 g/ha, observed after 3 weeks
Description: Maize is sown and then grown up in area where weeds and weed seeds are present. The weeds are a selection from: Alopecurus myosuroides, Avena fatua, Digitaria sanguinalis, Echinochloa crus-galli, Eleusine indica, Lolium multiflorum, Setaria viridis, Sorghum halepense, Cyperus esculentus, Cyperus iria, Cyperus rotundus, Eleocharis acicularis, Abutilon theophrasti, Amaranthus retroflexus, Bidens pilosa, Chenopodium album, Galium aparine, Ipomgoea purpurea, Lamium purpureum, Matricaria inodora, Sesbania exalta, Sinapis arvensis, Solanum nigrum, Stellaria media, Veronica hederifolia, Veronica Persia, Viola arvensis and Xanthium strumarium.
After one week sowing the maize, isoxazole is sprayed as an encapsulated formulation as hereinbefore described at a rate of 105 g/ha of herbicidally active compound, the weight ratio of isoxazole: copolyester being 1:10. The amounts of isoxazole of formula (I) and DKN were measured after 4 days in a 5 cm deep soil core around the seed or seedling.
The activity of the isoxazole on the crop and weeds was observed after 3 weeks, and found to be equal to 2% and 95% respectively.

[10] = dosing regime 2 × 6.25 g/ha (daily applications × dose)

SMILES: CS(=O)(=O)c1cc(C(F)(F)F)ccc1C(=O)c1cnoc1C1CC1 [isoxaflutole, 5-cyclopropyl-4-(2-methylsulphonyl-4-trifluoromethylbenzoyl)isoxazole]
- % Damage Amare ([1]; dosing regime 1 × 12.5 g/ha): 0%
- % Damage Amare ([1]; dosing regime 1 × 25 g/ha): 8%
- % Damage Amare ([1]; dosing regime 1 × 50 g/ha): 50%
- % Damage Amare ([1]; dosing regime 1 × 100 g/ha): 79%
- % Damage Amare [1, 10]: 34%
- % Damage Amare ([1]; dosing regime 2 × 12.5 g/ha): 46%
- % Damage Amare ([1]; dosing regime 2 × 25 g/ha): 42%
- % Damage Amare ([1]; dosing regime 2 × 50 g/ha): 78%
- % Damage Amare ([1]; dosing regime 4 × 6.25 g/ha): 80%
- % Damage Amare ([1]; dosing regime 4 × 12.5 g/ha): 79%
- % Damage Amare ([1]; dosing regime 4 × 25 g/ha): 90%
- % Damage Setvi ([2]; dosing regime 1 × 12.5 g/ha): 0%
- % Damage Setvi ([2]; dosing regime 1 × 25 g/ha): 10%
- % Damage Setvi ([2]; dosing regime 1 × 50 g/ha): 24%
- % Damage Setvi ([2]; dosing regime 1 × 100 g/ha): 59%
- % Damage Setvi [2, 10]: 18%
- % Damage Setvi ([2]; dosing regime 2 × 12.5 g/ha): 42%
- % Damage Setvi ([2]; dosing regime 2 × 25 g/ha): 44%
- % Damage Setvi ([2]; dosing regime 2 × 50 g/ha): 66%
- % Damage Setvi ([2]; dosing regime 4 × 6.25 g/ha): 75%
- % Damage Setvi ([2]; dosing regime 4 × 12.5 g/ha): 91%
- % Damage Setvi ([2]; dosing regime 4 × 25 g/ha): 77%
- % Damage Echcg ([3]; dosing regime 1 × 12.5 g/ha): 0%
- % Damage Echcg ([3]; dosing regime 1 × 25 g/ha): 32%
- % Damage Echcg ([3]; dosing regime 1 × 50 g/ha): 84%
- % Damage Echcg ([3]; dosing regime 1 × 100 g/ha): 94%
- % Damage Echcg [3, 10]: 18%
- % Damage Echcg ([3]; dosing regime 2 × 12.5 g/ha): 68%
- % Damage Echcg ([3]; dosing regime 2 × 25 g/ha): 70%
- % Damage Echcg ([3]; dosing regime 2 × 50 g/ha): 96%
- % Damage Echcg ([3]; dosing regime 4 × 6.25 g/ha): 97%
- % Damage Echcg ([3]; dosing regime 4 × 12.5 g/ha): 100%
- % Damage Echcg ([3]; dosing regime 4 × 25 g/ha): 100%

SMILES: CS(=O)(=O)c1cc(C(F)(F)F)ccc1C(=O)c1cnoc1C1CC1 [isoxazole]
- Activity Maize ([4]; dosing regime 1 × 100 g/ha): 8
- Activity Maize ([4]; dosing regime 2 × 50 g/ha): 10
- Activity Maize ([4]; dosing regime 4 × 25 g/ha): 6
- Activity AMARE ([5]; dosing regime 1 × 100 g/ha): 79
- Activity AMARE ([5]; dosing regime 2 × 50 g/ha): 78
- Activity AMARE ([5]; dosing regime 4 × 25 g/ha): 90
- Activity ECHCG ([6]; dosing regime 1 × 100 g/ha): 94
- Activity ECHCG ([6]; dosing regime 2 × 50 g/ha): 96
- Activity ECHCG ([6]; dosing regime 4 × 25 g/ha): 100
- Activity SETVI ([7]; dosing regime 1 × 100 g/ha): 59
- Activity SETVI ([7]; dosing regime 2 × 50 g/ha): 66
- Activity SETVI ([7]; dosing regime 4 × 25 g/ha): 77
- activity of the isoxazole on the weeds [8]: 95%
- activity of the isoxazole on the crop [9]: 15%
